Test results reported in patent publication US12410160B2 (Gilead Sciences, Inc., priority 2021, dated 2025).
Read-outs that look alike come from different tables or passages of the source.

Key:
[1] = target: human OATP1B1 (Homo sapiens (Human), UniProt Q9Y6L6); test: In Vitro Inhibition Assessment with Human OATP1B1 Transporter; assay type: in vitro ADME; conditions: HEK293-OATP1B1 cells, probe substrate pravastatin
Outline: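 HEK293-OATP1B1 and mock cells were preincubated 15 min with compound in HBSS. They were then coincubated 5 min with compound plus pravastatin (0.4% DMSO final), and intracellular substrate was quantified by LC-MS/MS. Mock-corrected uptake relative to solvent gave percentage activity, from which IC50 was fitted.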

[2] = target: human KHK-A (Homo sapiens (Human), UniProt P50053); test: KHK Biochemical Assay (IC50), ADP-Glo, KHK-A; conditions: average of at least two separate assays
Sequence of human KHK-A (P50053 other isoform, or with tags, fused parts or gaps): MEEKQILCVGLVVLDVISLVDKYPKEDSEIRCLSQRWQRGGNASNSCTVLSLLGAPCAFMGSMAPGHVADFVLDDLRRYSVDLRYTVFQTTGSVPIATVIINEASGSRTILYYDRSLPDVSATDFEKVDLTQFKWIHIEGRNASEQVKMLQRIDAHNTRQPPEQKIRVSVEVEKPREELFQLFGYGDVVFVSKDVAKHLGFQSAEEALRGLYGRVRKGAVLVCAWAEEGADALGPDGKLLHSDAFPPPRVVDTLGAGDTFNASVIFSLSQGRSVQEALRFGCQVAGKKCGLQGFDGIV
Outline: (§1)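 ADP-Glo luminescence measured ADP made over a 4 h room-temperature reaction of ATP plus fructose, started after 30 min compound–enzyme pre-incubation. Buffer: 50 mM Hepes pH 7.4, 140 mM KCl, 5 mM MgCl2, 0.01% Triton-X. Enzyme was His-tagged, BL21 (DE3)-expressed, Ni-NTA-purified; compounds in 1:3 DMSO dilution series.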

[3] = test system: HepG2 cells; test: F1P Cell-Based Assay (EC50), 13C6-fructose-1-phosphate in HepG2 cells (cell culture medium or 50% human plasma)
[4] = pKa analysis by capillary electrophoresis (pKa PRO Analyzer, co-solvent method); assay type: physicochemical; conditions: co-solvent method (60% to 30% methanol buffers); for 1st pKa: pH range 1.7-11.2; for pKa: methanol/aqueous co-solvent buffers
Description: The 10 mM DMSO stock solutions of test articles (TAs) were diluted 100-fold with either 2 mM HCl or 2 mM NaOH and methanol. The final concentration of methanol was 60%, TA concentration was 100 μM, and DMSO concentration was 1%. The TAs were transferred into 24 consecutive wells of a 96-well plate for analysis using the co-solvent method. […] All data was obtained using a pKa. PRO Analyzer (AATI, Ankey, IA) by performing four consecutive CE runs from 60% to 30% co-solvent buffers. Norfloxacin was used as a daily performance-indicating standard. The pKa values were predicted by using pKa. Estimator® software (AATI, Ankey, IA) by relating molecular weight of the TA to its mobility.

[5] = target: human KHK-C (Homo sapiens (Human), UniProt P50053); test: KHK Biochemical Assay (IC50), ADP-Glo, KHK-C; conditions: average of at least two separate assays
Sequence of human KHK-C (P50053 whole entry): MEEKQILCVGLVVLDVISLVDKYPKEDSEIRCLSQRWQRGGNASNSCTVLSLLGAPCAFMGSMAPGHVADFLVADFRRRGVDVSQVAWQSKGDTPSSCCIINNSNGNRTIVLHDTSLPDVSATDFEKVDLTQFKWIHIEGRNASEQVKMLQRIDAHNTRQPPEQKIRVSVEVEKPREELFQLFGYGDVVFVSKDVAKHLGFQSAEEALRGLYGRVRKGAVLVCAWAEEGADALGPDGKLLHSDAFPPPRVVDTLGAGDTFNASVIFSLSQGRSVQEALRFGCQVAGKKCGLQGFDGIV
Outline: as §1

[6] = target: KHK-C expressed in NRK-52E cells (Homo sapiens (Human), UniProt P50053); test: KHK-C Cell-based Assay (EC50), NRK CTG, fructose-mediated ATP-depletion
Sequence of KHK-C expressed in NRK-52E cells (P50053 whole entry): as above

[7] = Homo sapiens, HepG2, HepG2 cells, 50% human plasma, read-out: F1P 50% HP EC50
[8] = Homo sapiens, HepG2, read-out: F1P 10% FBS EC50, HepG2 cells, cell culture medium (10% FBS)
[9] = pH range 1.7-11.2, read-out: 1st pKa
[10] = pH range 1.7-11.2, read-out: 2nd pKa

Sequence of human OATP1B1 (Q9Y6L6 whole entry): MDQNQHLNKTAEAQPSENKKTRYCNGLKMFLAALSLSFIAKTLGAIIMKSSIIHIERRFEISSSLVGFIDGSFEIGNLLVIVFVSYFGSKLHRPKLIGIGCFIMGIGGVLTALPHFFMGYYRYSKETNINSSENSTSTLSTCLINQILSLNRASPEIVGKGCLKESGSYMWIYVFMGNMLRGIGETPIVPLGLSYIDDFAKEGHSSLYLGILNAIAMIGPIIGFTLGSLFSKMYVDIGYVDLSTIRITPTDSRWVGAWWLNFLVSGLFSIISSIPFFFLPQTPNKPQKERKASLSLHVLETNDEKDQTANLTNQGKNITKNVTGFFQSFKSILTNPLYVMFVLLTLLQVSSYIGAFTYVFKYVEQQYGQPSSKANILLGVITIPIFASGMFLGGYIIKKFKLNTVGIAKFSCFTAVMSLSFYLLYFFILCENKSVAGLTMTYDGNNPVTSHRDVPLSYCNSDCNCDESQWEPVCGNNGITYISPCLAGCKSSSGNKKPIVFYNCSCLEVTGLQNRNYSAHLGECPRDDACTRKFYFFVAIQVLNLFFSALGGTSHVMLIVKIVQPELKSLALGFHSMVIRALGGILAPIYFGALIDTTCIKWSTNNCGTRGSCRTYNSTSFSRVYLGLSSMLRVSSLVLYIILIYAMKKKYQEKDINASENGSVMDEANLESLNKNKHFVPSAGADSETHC

SMILES	IC50 [1] [nM]	IC50 [2] [nM]	EC50 ([3]; HepG2 cells, 50% human plasma, read-out: F1P 50% HP EC50) [nM]	EC50 ([3]; read-out: F1P 10% FBS EC50, HepG2 cells, cell culture medium (10% FBS)) [nM]	1st pKa [4]	IC50 [5] [nM]	EC50 [6] [nM]	IC50 ([2]; ADP-Glo) [nM]	EC50 [3, 7] [nM]	EC50 [3, 8] [nM]	pKa [4, 9]	IC50 ([5]; ADP-Glo) [nM]	pKa [4, 10]	EC50 ([6]; read-out: NRK CTG EC50, NRK-52E cells, Cell-Titer Glo, 25 mM fructose, 48 hours) [nM]
C[C@H]1[C@H](F)CN1c1nc(-c2ccc([C@@H](N)CS(C)(=O)=O)cc2)c2c(n1)C(F)(F)CC2 (single isomer, unassigned) [Example 789]	19700	12.5	30.6	22.7	6.4	3.9	–	–	–	–	–	–	–	–
C[C@H]1[C@H](O)CN1c1nc(-c2ccc([C@]3(N)CCS(=O)(=O)C3)cc2)c2c(n1)C(F)(F)CC2 (single isomer, unassigned) [Example 795]	–	–	–	–	–	–	54.5	24.1	88.8	52.7	4.9	4.6	–	–
C[C@H]1CCN1c1nc2c(c(-c3ccns3)n1)CCC2 [Example 13, (S)-5-(2-(2-methylazetidin-1-yl)-6,7-dihydro-5H-cyclopenta[d]pyrimidin-4-yl)isothiazole]	–	–	–	–	–	–	89.4	34	–	–	3.77	40.8	–	–
C[C@H]1CCN1c1nc2c(c(-c3cc[nH]n3)n1)CCC2 [Example 18, (S)-2-(2-methylazetidin-1-yl)-4-(1H-pyrazol-3-yl)-6,7-dihydro-5H-cyclopenta[d]pyrimidine]	–	–	–	–	–	–	144	55.1	–	–	4.52	73.1	–	–
C[C@H]1CCN1c1nc2c(c(-c3ccncc3)n1)CCC2 [Example 22, (S)-2-(2-methylazetidin-1-yl)-4-(pyridin-4-yl)-6,7-dihydro-5H-cyclopenta[d]pyrimidine]	–	–	–	–	–	–	288	147	–	–	2.86	99.1	4.74	–
C[C@H]1CCN1c1nc2c(c(-c3cnn(C)c3)n1)CCC2 [Example 23, (S)-4-(1-methyl-1H-pyrazol-4-yl)-2-(2-methylazetidin-1-yl)-6,7-dihydro-5H-cyclopenta[d]pyrimidine]	–	–	–	–	–	–	197	68.9	–	–	4.97	66.5	–	–
C[C@H]1CCN1c1nc2c(c(-c3cn4ccnc4s3)n1)CCC2 [Example 121, (S)-2-(2-(2-methylazetidin-1-yl)-6,7-dihydro-5H-cyclopenta[d]pyrimidin-4-yl)imidazo[2,1-b]thiazole]	–	–	–	–	–	–	87.3	29.3	–	–	3.68	24.1	5.35	–
C[C@H]1CCN1c1nc2c(c(-c3ccc(C4(N)COC4)cc3)n1)CCC2 [Example 131, (S)-3-(4-(2-(2-methylazetidin-1-yl)-6,7-dihydro-5H-cyclopenta[d]pyrimidin-4-yl)phenyl)oxetan-3-amine]	–	–	–	–	–	–	10.9	6	–	–	4.25	2.6	6.48	–
C[C@H]1CCN1c1nc2c(c(-c3ccc4c(N)nc(N)nc4c3)n1)CCC2 [Example 147, (S)-7-(2-(2-methylazetidin-1-yl)-6,7-dihydro-5H-cyclopenta[d]pyrimidin-4-yl)quinazoline-2,4-diamine]	–	–	–	–	–	–	35.3	12.3	–	–	3.59	18.7	6.43	–
C[C@H]1CCN1c1nc2c(c(-c3ccc(C4(N)CC4)cc3)n1)CCC2 [Example 295, (S)-1-(4-(2-(2-methylazetidin-1-yl)-6,7-dihydro-5H-cyclopenta[d]pyrimidin-4-yl)phenyl)cyclopropan-1-amine]	–	–	–	–	–	–	6.2	2.6	–	–	4.25	1.4	8.01	–
C[C@H]1CCN1c1nc2c(c(-c3cccc(CN)c3)n1)CCC2 [Example 329, [3-[2-[(2S)-2-methylazetidin-1-yl]-6,7-dihydro-5H-cyclopenta[d]pyrimidin-4-yl]phenyl]methanamine]	–	–	–	–	–	–	339	24.5	–	–	4.12	18.5	9.27	–
C[C@H]1CCN1c1nc2c(c(-c3ccccc3)n1)CCC2 [Example 331, 2-[(2S)-2-methylazetidin-1-yl]-4-phenyl-6,7-dihydro-5H-cyclopenta[d]pyrimidine]	–	–	–	–	–	–	384	255	4610	253	4.14	242	–	–
C[C@H]1CCN1c1nc2c(c(-c3cccc(CN4CCC4)c3)n1)CCC2 [Example 347, 4-[3-(azetidin-1-ylmethyl)phenyl]-2-[(2S)-2-methylazetidin-1-yl]-6,7-dihydro-5H-cyclopenta[d]pyrimidine]	–	–	–	–	–	–	17.1	22.7	–	–	3.69	23.8	9.16	–
C[C@H]1CCN1c1nc2c(c(-c3ccc4c(c3)CCNC4)n1)CCC2 [Example 379, 6-[2-[(2S)-2-methylazetidin-1-yl]-6,7-dihydro-5H-cyclopenta[d]pyrimidin-4-yl]-1,2,3,4-tetrahydroisoquinoline]	–	–	–	–	–	–	2.6	4.1	3.1	1.3	4.31	4.6	9.19	–
C[C@H]1CCN1c1nc2c(c(-c3ccc4cnc(O)cc4c3)n1)CCC2 [Example 380, 6-[2-[(2S)-2-methylazetidin-1-yl]-6,7-dihydro-5H-cyclopenta[d]pyrimidin-4-yl]isoquinolin-3-ol]	–	–	–	–	–	–	75.7	13	–	–	4.21	7.9	9.04	–
C[C@H]1CCN1c1nc2c(c(-c3ccc4c(O)nc(O)cc4c3)n1)CCC2 [Example 381, 6-[2-[(2S)-2-methylazetidin-1-yl]-6,7-dihydro-5H-cyclopenta[d]pyrimidin-4-yl]isoquinoline-1,3-diol]	–	–	–	–	–	–	> 5000	18.9	–	–	4.12	89.7	8.07	–
C[C@H]1CCN1c1nc2c(c(-c3ccc(CNS(C)(=O)=O)s3)n1)CCC2 [Example 460, N-[[5-[2-[(2S)-2-methylazetidin-1-yl]-6,7-dihydro-5H-cyclopenta[d]pyrimidin-4-yl]-2-thienyl]methyl]methanesulfonamide]	–	10.9	–	–	–	5.2	23.6	–	–	–	4.66	–	11.2	–
C[C@H]1[C@H](O)CN1c1nc(-c2ccc3c(c2)S(=O)(=O)CCNC3)c2c(n1)C(F)(F)CC2 [Example 489]	2670	5.2	–	–	–	3.5	–	–	20.2	16.5	5.3	–	–	–
O=S1(=O)CCNCc2ccc(-c3nc(N4CC[C@@H]4CF)nc4c3CCC4(F)F)cc21 [Example 490, (R)-8-(7,7-difluoro-2-(2-(fluoromethyl)azetidin-1-yl)-6,7-dihydro-5H-cyclopenta[d]pyrimidin-4-yl)-2,3,4,5-tetrahydrobenzo[f][1,4]thiazepine 1,1-dioxide]	939	4.6	–	–	–	1.2	–	–	19.3	9.3	5.5	–	–	–
C[C@H]1CCN1c1nc2c(c(-c3ccc4c(c3)OCC4N)n1)CCC2 (stereo partly drawn) [Example 754, 6-[2-[(2S)-2-methylazetidin-1-yl]-6,7-dihydro-5H-cyclopenta[d]pyrimidin-4-yl]-2,3-dihydrobenzofuran-3-amine]	–	–	–	–	–	1.9	14.6	–	11.7	–	4.2	–	–	–
C[C@H]1[C@H](F)CN1c1nc(-c2ccc([C@]3(N)C[S@@](=N)(=O)C3)cc2)c2c(n1)C(F)(F)CC2 [Example 797, (1R,3s)-3-amino-3-(4-(7,7-difluoro-2-((2S,3R)-3-fluoro-2-methylazetidin-1-yl)-6,7-dihydro-5H-cyclopenta[d]pyrimidin-4-yl)phenyl)-1-imino-1λ^6-thietane 1-oxide]	–	–	–	–	4.7	–	–	7.3	–	–	–	0.2	–	16.4
NC1(c2ccc(-c3nc(N4CC[C@@H]4C(F)(F)F)nc4c3CCC4(F)F)cc2)CS(=O)(=O)C1 [Example 802, (R)-3-amino-3-(4-(7,7-difluoro-2-(2-(trifluoromethyl)azetidin-1-yl)-6,7-dihydro-5H-cyclopenta[d]pyrimidin-4-yl)phenyl)thietane 1,1-dioxide]	10600	–	–	–	–	–	–	–	–	–	4.6	–	–	–
